The test is described as follows: Hydrogen peroxide (H2O2) inhibition assay (fluorescence, DCF/horseradish peroxidase). Type of test: biochemical. The settings on record: for IC50: HCl salt tested where HCl salt MW is given. As for the experimental part: Assay 1. Hydrogen Peroxide Assay
H2O2 is a strong oxidizer and a highly reactive oxygen species that is known to be toxic to surrounding proteins and organelles, inhibiting their function. […] […] H2O2 generated by the system is assessed by measuring the specific fluorescence profile at the excitation and emission wavelengths of 485 and 530 nm respectively, in the presence of test compound. Test compounds were dissolved in DMSO and tested at concentrations of 0.4 μM. Test compounds are ranked according to their capacity to inhibit H2O2 generated by the system where lower values reflect greater ability to inhibit H2O2 production.

Consider 2 compounds from US20210230159A1, “4H-PYRIDO[1,2-A]PYRIMIDIN-4-ONE COMPOUNDS” (Prana Biotechnology Limited, priority 2014, published 2021).

By IC50 is commonly meant the point on the concentration scale where inhibition reaches its midpoint. For `O=C(NCc1ccc(Cl)cc1)c1cnc2c(O)cccn2c1=O` [Compound 1429], the concentration for half-maximal inhibition (IC50) turned out to be 390 nM. Under “Cu, ascorbic acid as reducing substrate”, the “Cu % ASC (cf. CQ = 100%)” value was “Cu 54% ASC”. Also, the “Zn % ASC (cf. CQ = 100%)” value (Zn, ascorbic acid as reducing substrate) is listed as “Zn 57% ASC”. In addition, where the note is “dopamine as reducing substrate, test compound 0.4 μM, lower values = greater inhibition of H2O2”, the “Fe-DA % (cf. 0.4 uM Fe/DA; cf. CQ, CQ = 100%)” value amounted to 148%.

`O=c1cc(CNCCc2ccccn2)nc2c(O)cccn12` [Compound 1415]: the concentration for half-maximal inhibition (IC50) was below 100 nM. For the same compound, the “Fe-ASC % (cf. 0.4 uM Fe/Asc; cf. CQ, CQ = 100%)” value (ascorbic acid as reducing substrate, test compound 0.4 μM, lower values = greater inhibition of H2O2) amounted to 34% ASC.
